Where “and” joins values, the source holds several entries; their conditions need not be identical. Equal entries are not always repeated. After the bases stand the sugars from the 5' end (letter, count) and the backbone: PS all phosphorothioate, else s phosphorothioate and o phosphodiester by linkage. Methylation of C is not given here. e = 2'-O-(2-methoxyethyl) (MOE); k = constrained ethyl (cEt); d = 2'-deoxy (DNA)
Biological target: IRF4
Conditions: ASO

Sequence | target mRNA inhibition (SK-MEL-28, 4 µM) | target mRNA inhibition (MM.1R, 1 µM) | other results
AACTTATAGCACTCTC (sugars k3 d10 k3, PS) | 28% | – | –
TGTAGTATGAGAAACG (sugars k3 d10 k3, PS) | 69% | – | –
TAAACAAGATGAATCC (sugars k3 d10 k3, PS) | 44% | – | –
AGACAAGTGCTAGGAT (sugars k3 d10 k3, PS) | 56% | – | –
TTATATACTGGTTGGT (sugars kkdddddddddekeke, PS) | – | 64% | –
CATTGGAGGAGGGTTG (sugars k3 d10 k3, PS) | -2% | – | –
CAGTGATGTCAGGTTT (sugars kkddddddddddkeke, PS) | – | 41% | –
CCAGGATTCGCCATGG (sugars k3 d10 k3, PS) | – | 13% | –
ATCAATGATGGCAGTC (sugars k3 d10 k3, PS) | 57% | – | –
CGTTCTCCCACACCAG (sugars k3 d10 k3, PS) | 48% | – | –
GAAAGATTCAGCCTCT (sugars k3 d10 k3, PS) | 45% | – | –
CTTCACTGTTAGCTAC (sugars k3 d10 k3, PS) | 51% | – | –
GATAGCTGAGCTGATC (sugars k3 d10 k3, PS) | 32% | – | –
CCCCATATACATTGAG (sugars k3 d10 k3, PS) | 37% | – | –
ATTTTAAGGCCCTGTC (sugars k3 d10 k3, PS) | 34% | – | –
CAAGTGTCTTCCACAA (sugars k3 d10 k3, PS) | 65% | – | –
TTACATCTTACTTCCC (sugars k3 d10 k3, PS) | 42% | – | –
CCCTTCCCGCTCCGAA (sugars k3 d10 k3, PS) | 16% | – | –
ATCTGTATAGTTCTCA (sugars k3 d10 k3, PS) | – | 55% | –
ATGGTATTTTTCCGTT (sugars k3 d10 k3, PS) | – | 32% and 43% | –
TGTAGTATGAGAAACG (sugars kkdddddddddekeke, PS) | – | 13% | –
TAGTTAAGTACTTGGA (sugars k3 d10 k3, PS) | 56% | – | –
TTGATGTGATAGCTGA (sugars kkdddddddddekeke, PS) | – | 28% | –
GGCTAGCAGAGGTTCT (sugars k3 d10 k3, PS) | 51% | – | –
GCCCACTGAGTGTGCA (sugars k3 d10 k3, PS) | 10% | – | –
TCTATAAGATGTATAC (sugars k3 d10 k3, PS) | 26% | – | –

Sequence | target mRNA inhibition (SK-MEL-28, 4 µM) | target mRNA inhibition (MM.1R, 1 µM) | other results
CCTGGTCCAGGTTGCT (sugars k3 d10 k3, PS) | 26% | – | –
CGCAATCTTCTGCTGA (sugars k3 d10 k3, PS) | 64% | – | –
ACTGAGAGTGCGAGGT (sugars k3 d10 k3, PS) | -20% | – | –
GATAGTTAAGTACTTG (sugars k3 d10 k3, PS) | 49% | – | –
AAACGAGTTGACACAG (sugars k3 d10 k3, PS) | 20% | – | –
GCAGAAACAGCCCACT (sugars k3 d10 k3, PS) | 41% | – | –
GCAGGGACCGCGCCAG (sugars k3 d10 k3, PS) | – | 10% | –
AGATGTAAAGATAGGA (sugars k3 d10 k3, PS) | 54% | – | –
ACTGTTACCGATGCTT (sugars kkddddddddddkeke, PS) | – | 30% and 48% | –
TACAGGCACGGCTTCA (sugars k3 d10 k3, PS) | 58% | – | –
CTGTTACCGATGCTTC (sugars kdddddddddkekeke, PS) | – | 2% and 24% | –
CAGTTCTAAGCATTGC (sugars k3 d10 k3, PS) | 33% | – | –
CAGCACCGTGGTGCGA (sugars k3 d10 k3, PS) | – | -27% | –
GTAGTATGAGAAACGG (sugars e1 k2 d9 k2 e2, PS) | – | 29% | –
GATTTATGTTCCTTAA (sugars k3 d10 k3, PS) | 47% | – | –
CTTACTAGGTGCTTGT (sugars k3 d10 k3, PS) | 38% | – | –
GTCTGAGTTGTACAGG (sugars k3 d10 k3, PS) | – | 52% and 57% | –
ACGCAATGGCAAAAGA (sugars k3 d10 k3, PS) | 11% | – | –
TGCTAAAGGAGTGCAG (sugars k3 d10 k3, PS) | – | -17% | –
GTATTTATAACCGGTA (sugars k3 d10 k3, PS) | 67% | 34% and 36% and 37% | target mRNA inhibition (MM.1R, 0.0625 µM): -7% and 4% and -9%; target mRNA inhibition (MM.1R, 0.074 µM): -19%; target mRNA inhibition (MM.1R, 0.222 µM): 4%; target mRNA inhibition (MM.1R, 0.25 µM): 8% and 9% and 21%; target mRNA inhibition (MM.1R, 0.666 µM): 7%; target mRNA inhibition (MM.1R, 2 µM): 33%; target mRNA inhibition (MM.1R, 4 µM): 77% and 74% and 75%
CCCAAATGACTTAGTC (sugars k3 d10 k3, PS) | 32% | – | –
CTAGATTGTAGGACAG (sugars k3 d10 k3, PS) | 48% | – | –
GCTAAACTCCTAAGTA (sugars k3 d10 k3, PS) | 30% | – | –
TCGGTCCACATACCTG (sugars k3 d10 k3, PS) | 39% | – | –
TACTGCTTGAGGTTTT (sugars k2 d9 e3 k2, PS) | – | 10% | –
GCAATCTTAACCTGGA (sugars k3 d10 k3, PS) | – | 37% and 38% | target mRNA inhibition (MM.1R, 0.0625 µM): -3% and 3%; target mRNA inhibition (MM.1R, 0.25 µM): 8%; target mRNA inhibition (MM.1R, 4 µM): 70% and 71%

Sequence | target mRNA inhibition (SK-MEL-28, 4 µM) | target mRNA inhibition (MM.1R, 1 µM) | other results
GAACACTTTGAGGTGA (sugars k3 d10 k3, PS) | 14% | – | –
GTGTAATGTAGGGATA (sugars k3 d10 k3, PS) | 64% | – | –
CCGGAGTCAGTGCTGG (sugars k3 d10 k3, PS) | -7% | – | –
AGTTGTAAATGAGTCG (sugars kkdddddddddkekek, PS) | – | 56% | target mRNA inhibition (MM.1R, 0.074 µM): 10%; target mRNA inhibition (MM.1R, 0.222 µM): 31%; target mRNA inhibition (MM.1R, 0.666 µM): 47%; target mRNA inhibition (MM.1R, 2 µM): 66%
TACTGCTTGAGGTTTT (sugars kkkdddddddddkeke, PS) | – | 7% | –
GCAAACGACAAGTGGC (sugars k3 d10 k3, PS) | – | -15% | –
TATACTTAAGCAAGTG (sugars k3 d10 k3, PS) | 47% | – | –
TCCCTCCAGCTTCGGT (sugars k3 d10 k3, PS) | – | -21% | –
CCATATTGGAAACCAG (sugars k3 d10 k3, PS) | – | 10% | –
TCAGAAATCACGAGGT (sugars k3 d10 k3, PS) | – | – | target mRNA inhibition (MM.1R, 0.0625 µM): -11%; target mRNA inhibition (MM.1R, 0.25 µM): -5%; target mRNA inhibition (MM.1R, 4 µM): 37%
ACTTAAGCAAGTGGAG (sugars k3 d10 k3, PS) | 63% | – | –
GAAGAAGGCACCTTCG (sugars k3 d10 k3, PS) | 25% | – | –
GGAAAGAGCTTTGGTG (sugars k3 d10 k3, PS) | 12% | – | –
TTACGCTTATTTTTCC (sugars k3 d10 k3, PS) | – | 39% | –
CTGCTTGAGGTTTTCC (sugars k3 d10 k3, PS) | 74% | – | –
AACGAGTTGACACAGG (sugars k3 d10 k3, PS) | 55% | – | –
CTGGGTTTTCTGTAGG (sugars k3 d10 k3, PS) | 48% | – | –
CGTCGCAGGAGCGCGG (sugars k3 d10 k3, PS) | – | 1% | –
GTTTGTGAAGCATCCT (sugars k3 d10 k3, PS) | 65% | – | –
CCGTTCCTTTTTTAGT (sugars k3 d10 k3, PS) | – | -3% | –
TCTACAAGGTCTGAGT (sugars k3 d10 k3, PS) | 57% | – | –
CTGCAGAACAGACGCG (sugars k3 d10 k3, PS) | 11% | – | –
TAAATTCTAGTTTGCC (sugars k3 d10 k3, PS) | 68% | – | –
GACCAGGATTCGCCAT (sugars k3 d10 k3, PS) | 23% | – | –
CAACAGCACTGTCCAC (sugars k3 d10 k3, PS) | 43% | – | –
TTTTAGTGTTACTTGC (sugars k3 d10 k3, PS) | 32% | – | –

Sequence | target mRNA inhibition (SK-MEL-28, 4 µM) | target mRNA inhibition (MM.1R, 1 µM) | other results
GCATTTTATCATCCGA (sugars k3 d10 k3, PS) | 63% | – | –
GGCTCCTACATGTTTG (sugars k3 d10 k3, PS) | -46% | – | –
GTTCAAGACAAGGGTT (sugars k3 d10 k3, PS) | – | 15% | –
GCACATCAATGTTTTA (sugars k2 d9 e3 k2, PS) | – | 20% | –
GATAACCTGAACATGA (sugars k3 d10 k3, PS) | 17% | – | –
ATGGACATCTGCGGGT (sugars k3 d10 k3, PS) | 50% | – | –
GGACATTGGTACGGGA (sugars k3 d10 k3, PS) | 50% | – | –
CTCACTATTAAACAGC (sugars k3 d10 k3, PS) | 24% | – | –
GATAGGTATACTTAAG (sugars k3 d10 k3, PS) | 51% | – | –
TACCAGCTCAATAATC (sugars k3 d10 k3, PS) | – | -27% | –
CATATACATTGAGGCA (sugars k3 d10 k3, PS) | – | 20% | –
TGTGTATTACTCTTAG (sugars k2 d9 e3 k2, PS) | – | 41% and 24% | –
CAGGTTTCATTTCATT (sugars k4 d8 k4, PS) | 54% | – | target mRNA inhibition (MM.1R, 0.074 µM): 2%; target mRNA inhibition (MM.1R, 0.222 µM): 3%; target mRNA inhibition (MM.1R, 0.666 µM): 19%; target mRNA inhibition (MM.1R, 2 µM): 15%; target mRNA inhibition (SK-MEL-28, 0.185 µM): 14% and 13% and 18%; target mRNA inhibition (SK-MEL-28, 5 µM): 57% and 55% and 67%; target mRNA inhibition (SK-MEL-28, 15 µM): 74% and 72%
CCCAATAGTCTAGCTG (sugars k3 d10 k3, PS) | 56% | – | –
TTACCATTTTCACAAG (sugars k4 d8 k4, PS) | 7% | – | –
GTTTTAAGAGGCGACT (sugars k3 d10 k3, PS) | 33% | – | –
ACGGACGAACGCGCAA (sugars k3 d10 k3, PS) | – | -7% | –
GAATGAGGAAGCCGTT (sugars k3 d10 k3, PS) | 39% | – | –
CCTACAAAATGCCTCC (sugars k3 d10 k3, PS) | 47% | – | –
ATAGGAAGCACTGGCA (sugars k3 d10 k3, PS) | 42% | – | –
ACAGGAGCCGCTACAG (sugars k3 d10 k3, PS) | 31% | – | –
TGGTAGGTCAAACTCC (sugars k3 d10 k3, PS) | -13% | – | –
TGCCGAACTCTCCGCC (sugars k3 d10 k3, PS) | 43% | – | –

Reference: the OligoGym collection
